Experimental data published in patent US20210023099A1, “COMBINATION THERAPY WITH A BET INHIBITOR AND A PROTEASOME INHIBITOR” (Hoffmann-La Roche Inc., priority 2018, published 2021).
Several values for one entry are separate records, joined by “and”; a condition that tells them apart may be missing. Identical values can stand only once.

Legend:
[1] = system: MM1S MM xenografts; experiment: In vivo antitumor efficacy against MM1S MM xenografts; conditions: Day 28, s.c. MM1s xenografts in female CIEA NOG mice, bortezomib 0.5 mg/kg iv 2 x Q7D; for Tumor Regression % / TGI % (Tumor growth inhibition): RG6146 30 mg/kg ip QD D14-28; for TGI % (Tumor growth inhibition): vs control; for npTCR (non-parametric Treatment to Control Ratio): RG6146 30 mg/kg ip QD, CI printed in the line below
Method: The in vivo antitumor efficacy of BET inhibitor RG6146 in combination with proteasome inhibitor bortezomib was evaluated against MM1S MM xenografts.
The original MM1s human Multiple Myeloma cell line (MM) was purchased from ATCC (Manassas, Va., USA). Expansion of tumor cells for the transplantation was done by the TAP CompacT CellBase Cell Culture Roboter according to the protocol. Tumor cell line was routinely cultured in RPMI 1640 medium, FCS 10% and L-Glutamin 2 mM at 37° C. in a water-saturated atmosphere at 5% CO2. Culture passage was performed with trypsin/EDTA 1× splitting twice/week and passage 2 used for transplantation.
Female CIEA NOG mice (Taconic), age 5-6 weeks at arrival, maintained under specific-pathogen-free condition with daily cycles of 12 h light/12 h darkness according to committed guidelines. Experimental study protocol was reviewed and approved by local government. After arrival animals were maintained in animal facility for one week to get accustomed to new environment and for observation. Continuous health monitoring was carried out on regular basis. Diet food and autoclaved water were provided ad libitum.
(§1) Animals were controlled daily for clinical symptoms and detection of adverse effects. For monitoring throughout the experiment body weight of animals was documented.
Animal treatment started after randomisation when median tumor size was about 100 mm^3. The vehicle was administered ip once daily (QD) on D14-28. BET inhibitor RG6146 ip treatment at 30 mg/kg was done as single agent and in combination on D14-28. Finally, proteasome inhibitor bortezomib was given i.v. at 0.5 mg/kg as single agent and in combination twice a week for two weeks.
MM1s human MM cells were s.c. inoculated with Matrigel onto female CIEA-NOG mice. Tumor bearing mice were randomized 14 days later to the indicated study groups and compound treatment initiated. Tumor bearing animals were treated with vehicle control, with the BET inhibitor RG6146 at 30 mg/kg or with proteasome inhibitor bortezomib at 0.5 mg/kg as single agent and in combination thereof.

[2] = system: OPM-2 MM xenografts; experiment: In vivo antitumor efficacy against OPM-2 MM xenografts; conditions: Day 31, s.c. OPM-2 xenografts in female Scid beige mice, bortezomib 0.5 mg/kg iv 2xQ7D; for Tumor Regression % / TGI % (Tumor growth inhibition): RG6146 30 mg/kg ip QD D17-31; for TGI % (Tumor growth inhibition): vs control; for npTCR (non-parametric Treatment to Control Ratio) / Tumor free animal (complete tumor remission): RG6146 30 mg/kg ip QD; for npTCR (non-parametric Treatment to Control Ratio): CI printed in the lines below; for Tumor free animal (complete tumor remission): animals tumor free / group
Method: The in vivo antitumor efficacy of BET inhibitor RG6146 in combination with proteasome inhibitor bortezomib was evaluated against OPM-2 MM xenografts.
The original OPM-2 human Multiple Myeloma cell line (MM) was purchased from ATCC (Manassas, Va., USA). Expansion of tumor cells for the transplantation was done by the TAP CompacT CellBase Cell Culture Roboter according to the protocol. Tumor cell line was routinely cultured in RPMI 1640 medium, FCS 10% and L-Glutamin 2 mM at 37° C. in a water-saturated atmosphere at 5% CO2. Culture passage was performed with trypsin/EDTA 1× splitting twice/week and passage 2 used for transplantation.
Female Scid beige mice (Charles River), age 6-7 weeks at arrival, maintained under specific-pathogen-free condition with daily cycles of 12 h light/12 h darkness according to committed guidelines. Experimental study protocol was reviewed and approved by local government. After arrival animals were maintained in animal facility for one week to get accustomed to new environment and for observation. Continuous health monitoring was carried out on regular basis. Diet food and autoclaved water were provided ad libitum.
as §1
Animal treatment started after randomisation when median tumor size was about 115 mm^3. The vehicle was administered ip once daily (QD) on D17-31. BET inhibitor RG6146 ip treatment at 30 mg/kg was done as single agent and in combination on D17-31. Finally, proteasome inhibitor bortezomib was given i.v. at 0.5 mg/kg as single agent and in combination twice a week for two weeks.
OPM-2 human MM cells were s.c. inoculated with Matrigel onto female Scid beige mice. Tumor bearing mice were randomized 17 days later to the indicated study groups and compound treatment initiated. Tumor bearing animals were treated with vehicle control, with the BET inhibitor RG6146 at 30 mg/kg or with proteasome inhibitor bortezomib at 0.5 mg/kg as single agent and in combination thereof.

Row | SMILES | Tumor Regression % [1] [%] | TGI % (Tumor growth inhibition) [1] [%] | npTCR (non-parametric Treatment to Control Ratio) [1] | Tumor Regression % [2] [%] | TGI % (Tumor growth inhibition) [2] [%] | npTCR (non-parametric Treatment to Control Ratio) [2] | Tumor free animal (complete tumor remission) [2]
1 | CC(C)C[C@H](NC(=O)[C@H](Cc1ccccc1)NC(=O)c1cnccn1)B(O)O [bortezomib, [(1R)-3-methyl-1-[[(2S)-3-phenyl-2-(pyrazine-2-carbonylamino)propanoyl]amino]butyl]boronic acid, reference compound] | 0 | 29 | 0.75 | 0 | 60 | 0.34 | 0/10
2 | Cc1sc2c(c1C)C(c1ccc(Cl)cc1)=N[C@@H](CC(=O)NCCCN1CCN(C)CC1)c1nnc(C)n1-2 [RG6146, 2-[(S)-4-(4-chloro-phenyl)-2,3,9-trimethyl-6H-1-thia-5,7,8,9a-tetraaza-cyclopenta[e]azulen-6-yl]-N-[3-(4-methyl-piperazin-1-yl)-propyl]-acetamide] | 0 | 83 | 0.29 | 85 | >100 | 0.008 | 5 out of 10 and 5/10
